From patent US8357694B2, “Substituted 5,6-dihydro-6-phenylbenzo[F]isoquinolin-2-amine compounds” (ArQule, Inc., priority 2008, dated 2013)
Where a name gives a salt, the structure may show the parent alone.

Legend:
SNU-16 = assay: MTS assay, SNU-16; assay type: cell-based; conditions: Homo sapiens, SNU-16, SNU-16; read-out: MTS cell kill data (IC50-μM) SNU-16
Procedure: (§1) Cells were maintained at 37° C., 5% CO2 in DMEM media supplemented with 1% fetal bovine serum, penicillin/streptomycin and fungizone (Invitrogen). Cells were seeded into 96-well tissue culture plates at 3000 per well and cultured at 37° C. for 18 hours. Test compounds were dissolved and diluted to 300× in DMSO then diluted 1:40 in DMEM.

FGFR2 kinase = molecular target: T1, FGFR2 kinase (Homo sapiens, UniProt P21802, N549H); assay: fluorescent ELISA FGFR2 kinase assay (biochemical); conditions: FGFR2 (N549H); read-out: Biochemical data (IC50-μM) FGFR2 (N549H)
T1 construct: purchased Millipore 14-742
Procedure: The enzymatic assays described herein are conducted according to the following procedures from commercially available reagents. In one, non limiting, example, a fluorescent ELISA assay is used to identify and characterize inhibitors of FGFR2 kinase as described herein. This heterogeneous assay utilizes a biotinylated peptide with a tyrosine motif as a substrate and an anti-phospho-tyrosine antibody to measure phosphorylation of the substrate. […] The reaction is incubated for 60 minutes. As the reaction proceeds, FGFR2 phosphorylates tyrosines in the peptide. […] Peptides are captured for 30 minutes at room temperature, the phosphorylation of peptides continues during this phase. The reaction is stopped by washing the streptavidin-coated plate 6 times with TBST. […] Unbound anti-phospho-tyrosine antibody is removed by washing the streptavidin-coated plate 6 times with TBST. […] Unbound secondary antibody is removed by washing the streptavidin-coated plate 6 times with TBST.

NCI-H1299 = assay: MTS cell kill, NCI-H1299; assay type: cell-based
Procedure: as §1

MDA-MB-231 = assay: MTS cell kill, MDA-MB-231; assay type: cell-based
Procedure: as §1

PACA-2 = assay: MTS cell kill, PACA-2; assay type: cell-based
Procedure: as §1

DLD-1 = assay: MTS cell kill, DLD-1; assay type: cell-based
Procedure: as §1

KATO III = assay: MTS assay, KATO III; assay type: cell-based
Procedure: as §1

T1 sequence (P21802 456-770 N549H limits assumed): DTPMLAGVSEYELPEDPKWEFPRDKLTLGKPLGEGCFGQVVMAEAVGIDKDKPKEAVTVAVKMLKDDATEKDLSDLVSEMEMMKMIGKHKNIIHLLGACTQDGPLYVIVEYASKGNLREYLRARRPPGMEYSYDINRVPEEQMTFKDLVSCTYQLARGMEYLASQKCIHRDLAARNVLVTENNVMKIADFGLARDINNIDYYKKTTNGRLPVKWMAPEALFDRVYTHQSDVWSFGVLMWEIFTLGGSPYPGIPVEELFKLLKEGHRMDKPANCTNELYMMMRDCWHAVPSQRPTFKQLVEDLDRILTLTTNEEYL

Row | SMILES | IC50 (SNU-16) [µM] | IC50 (FGFR2 kinase) [µM] | MTS cell kill data (% inhibition) NCI-H1299 (NCI-H1299) | MTS cell kill data (% inhibition) MDA-MB-231 (MDA-MB-231) | MTS cell kill data (% inhibition) PACA-2 (PACA-2) | MTS cell kill data (% inhibition) DLD-1 (DLD-1) | MTS cell kill data (% inhibition) KATO III (KATO III) | melting point [°C]
1 | COCCNCCc1ccc(Nc2ncc3c(n2)-c2ccccc2[C@H](c2ccccc2F)C3)cc1 [Example 94, (R)-6-(2-fluorophenyl)-N-(4-(2-(2-methoxyethylamino)ethyl)phenyl)-5,6-dihydrobenzo[h]quinazolin-2-amine hydrochloride salt] | 0.895 | 0.00999 |  |  |  |  |  | 
2 | CNc1ncc2c(n1)-c1ccccc1C1(CCN(C(=O)Nc3ccc(Oc4ccccc4)cc3)CC1)C2 [Example 406, 2-(methylamino)-N-(4-phenoxyphenyl)-1′H,5H-spiro[benzo[h]quinazoline-6,4′-piperidine]-1′-carboxamide] |  |  | A (A = 80-100% inhibition) | A (A = 80-100% inhibition) | A (A = 80-100% inhibition) | A (A = 80-100% inhibition) | A (A = 80-100% inhibition) | 
3 | CN(CCc1ccccc1)CCc1ccc(Nc2ncc3c(n2)-c2ccccc2[C@H](c2ccccc2F)C3)cc1 [Example 93, (R)-6-(2-fluorophenyl)-N-(4-(2-(methyl(phenethyl)amino)ethyl)phenyl)-5,6-dihydrobenzo[h]quinazolin-2-amine hydrochloride salt] | 3.25 | 0.296 |  |  |  |  |  | 
4 | N#Cc1cccc(NC(=O)N2CCC3(CC2)Cc2cnc(Nc4ccc(CO)cc4)nc2-c2ccccc23)c1 [Example 414, N-(3-cyanophenyl)-2-{[4-(hydroxymethyl)phenyl]amino}-1′H,5H-spiro[benzo[h]quinazoline-6,4′-piperidine]-1′-carboxamide] |  |  | B (B = 50-79% inhibition) | B (B = 50-79% inhibition) | A (A = 80-100% inhibition) | B (B = 50-79% inhibition) | A (A = 80-100% inhibition) | 
5 | Cc1ccc(F)c(CNc2ccc(C3Cc4cnc(NCCCN5CCN(C)CC5)nc4-c4ccccc43)cc2)c1 (stereo not drawn) [Example 570, 6-{4-[(2-fluoro-5-methylbenzyl)amino]phenyl}-N-[3-(4-methylpiperazin-1-yl)propyl]-5,6-dihydrobenzo[h]quinazolin-2-amine] |  |  | A (A = 80-100% inhibition) | A (A = 80-100% inhibition) | A (A = 80-100% inhibition) | A (A = 80-100% inhibition) | A (A = 80-100% inhibition) | 
6 | CN1CCN(CCCNc2ncc3c(n2)-c2ccccc2C(c2ccc(NCc4ccccc4F)cc2)C3)CC1 (stereo not drawn) [Example 574, 6-{4-[(2-fluorobenzyl)amino]phenyl}-N-[3-(4-methylpiperazin-1-yl)propyl]-5,6-dihydrobenzo[h]quinazolin-2-amine] |  |  | A (A = 80-100% inhibition) | A (A = 80-100% inhibition) | A (A = 80-100% inhibition) | A (A = 80-100% inhibition) | A (A = 80-100% inhibition) | 
7 | COCCN1CCN(CCc2ccc(Nc3ncc4c(n3)-c3ccccc3[C@H](c3cccc(Br)c3)C4)cc2)CC1 [Example 77, (S)-6-(3-bromophenyl)-N-(4-(2-(4-(2-methoxyethyl)piperazin-1-yl)ethyl)phenyl)-5,6-dihydrobenzo[h]quinazolin-2-amine hydrochloride] | 4.47 | 0.118 |  |  |  |  |  | 
8 | N#Cc1cccc(NC(=O)N2CCC3(CC2)Cc2cnc(Nc4ccc(CCO)cc4)nc2-c2ccccc23)c1 [Example 413, N-(3-cyanophenyl)-2-{[4-(2-hydroxyethyl)phenyl]amino}-1′H,5H-spiro[benzo[h]quinazoline-6,4′-piperidine]-1′-carboxamide] |  |  | B (B = 50-79% inhibition) | A (A = 80-100% inhibition) | A (A = 80-100% inhibition) | A (A = 80-100% inhibition) | A (A = 80-100% inhibition) | 
9 | CCCCN(C)CCc1ccc(Nc2ncc3c(n2)-c2ccccc2[C@H](c2ccc(Cl)c(Cl)c2)C3)cc1 [Example 105, (S)-N-(4-(2-(butyl(methyl)amino)ethyl)phenyl)-6-(3,4-dichlorophenyl)-5,6-dihydrobenzo[h]quinazolin-2-amine hydrochloride salt] | 5.03 | 0.499 |  |  |  |  |  | 
10 | CN1CCN(CCCNc2ncc3c(n2)-c2ccccc2C(c2ccc(NCc4ccc5c(c4)CCO5)cc2)C3)CC1 (stereo not drawn) [Example 572, 6-{4-[(2,3-dihydro-1-benzofuran-5-ylmethyl)amino]phenyl}-N-[3-(4-methylpiperazin-1-yl)propyl]-5,6-dihydrobenzo[h]quinazolin-2-amine] |  |  | A (A = 80-100% inhibition) | A (A = 80-100% inhibition) | A (A = 80-100% inhibition) | A (A = 80-100% inhibition) | A (A = 80-100% inhibition) | 
11 | Fc1ccc([C@@H]2Cc3cnc(Nc4ccc(CCN5CCCCC5)cc4)nc3-c3ccccc32)cc1 [Example 101, (S)-6-(4-fluorophenyl)-N-(4-(2-(piperidin-1-yl)ethyl)phenyl)-5,6-dihydrobenzo[h]quinazolin-2-amine] | 4.03 | 0.177 |  |  |  |  |  | 185 to 188
12 | COCCNCCc1ccc(Nc2ncc3c(n2)-c2ccccc2[C@H](c2ccc(F)c(F)c2)C3)cc1 [Example 86, (S)-6-(3,4-difluorophenyl)-N-(4-(2-(2-methoxyethylamino)ethyl)phenyl)-5,6-dihydrobenzo[h]quinazolin-2-amine hydrochloride] | 5.13 | 0.267 |  |  |  |  |  | 
13 | CN(CCc1ccc(Nc2ncc3c(n2)-c2ccccc2[C@H](c2ccc(F)cc2)C3)cc1)C1CCCCC1 [Example 102, (S)-N-(4-(2-(cyclohexyl(methyl)amino)ethyl)phenyl)-6-(4-fluorophenyl)-5,6-dihydrobenzo[h]quinazolin-2-amine] | 3.22 | 0.26 |  |  |  |  |  | 
14 | Brc1ccc([C@@H]2Cc3cnc(Nc4ccc(CCN5CCCCC5)cc4)nc3-c3ccccc32)cc1 [Example 103, (S)-6-(4-bromophenyl)-N-(4-(2-(piperidin-1-yl)ethyl)phenyl)-5,6-dihydrobenzo[h]quinazolin-2-amine hydrochloride salt] | 3.57 | 0.178 |  |  |  |  |  | 
15 | COCCNCCc1cc(Nc2ncc3c(n2)-c2ccccc2[C@H](c2ccccc2F)C3)ccc1F [Example 173, (R)-N-(4-fluoro-3-(2-(2-methoxyethylamino)ethyl)phenyl)-6-(2-fluorophenyl)-5,6-dihydrobenzo[h]quinazolin-2-amine hydrochloride salt] | 0.519 | 0.0359 |  |  |  |  |  | 
16 | CN(CCc1ccc(Nc2ncc3c(n2)-c2ccccc2[C@H](c2ccccc2F)C3)cc1)C1CCCCC1 [Example 95, (R)-N-(4-(2-(cyclohexyl(methyl)amino)ethyl)phenyl)-6-(2-fluorophenyl)-5,6-dihydrobenzo[h]quinazolin-2-amine] | 1.13 | 0.24 |  |  |  |  |  | 
